According to patent US20250257034A1, “INDOLE DERIVATIVES AS SEROTONERGIC AGENTS USEFUL FOR THE TREATMENT OF DISORDERS RELATED THERETO” (priority 2023, published 2025):
“And” between values parts separate entries of the source, which are not always exact repeats. Equal entries are not always repeated. Where two headings read alike, the source gives them in different places.

What was measured:
[1] = Pharmacokinetic studies in rat (i.v.); type: in vivo; conditions: rat plasma; for Apparent t1/2 / half-life: estimated from 2 points only; for concentration at 0.25 h / concentration at 1 h / concentration at 4 h / half-life / AUC(0-t): male, Sprague-Dawley, rat, plasma, iv; for concentration at 0.25 h / concentration at 1 h / concentration at 4 h: read-out: Plasma concentration; for half-life: read-out: Apparent t1/2 (converted); for AUC(0-t): read-out: AUC0-tlast
Experimental: Animals: Male Sprague-Dawley rats (˜225-350 g) from Charles River Labs were acclimatized for a minimum of 5 days prior to start of study procedures. Body weights were recorded on the day of dosing.
Any abnormalities were documented including presence/absence of wet dog shakes/back muscle contractions (WDS/BMC).
Dosing: Formulations were administered intravenously (i.v.) via the tail vein using a 25 G needle connected to a 1 cc syringe.
The Compounds of Formula (I) were freshly prepared at the appropriate concentrations in 5% Tween-80 in saline.
Blood collection time (h): 0.25, 1 and 4.
Volume/time-point: ˜0.25 mL […] (saphenous vein).
Instrumentation: AB Sciex QTRAP 4000 or 6500 MS/MS system equipped with an LC system with a binary pump, a solvent degasser, a thermostatted column compartment and a multiplate autosampler.
Analysis software: Phoenix® WinNonlin® 8.3 (Pharsight, Certara, Mountainview, CA).
Analysis methods: non-compartmental analysis, linear up/log down trapezoidal rule.
PK parameters: t1/2 and AUC0-tlast were be estimated.
Volume/time-point: ˜0.25 mL (saphenous vein).
PK parameters: t1/2 and AUC0-tlast were estimated.

[2] = Human liver microsomes stability; type: in vitro ADME; conditions: Human liver microsomes; for half-life at 2 μM / microsomal CLint at 2 μM: 2 μM compound, 0.5 mg/mL microsomes, 1 mM NADPH; for half-life at 2 μM: 37° C; for microsomal CLint at 2 μM: read-out: CLint (μL/min/mg protein); for CLint scaled at 2 μM: read-out: Scaled-up CLint
In short: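 In this assay, 2 μM compound is incubated with NADPH-supplemented liver microsomes (human pooled; male rat; male mouse) at 37° C for up to 60 min. Depletion is followed by LC-MS/MS, and CLint is expressed per mg microsomal protein.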

[3] = Mouse liver microsomes stability; type: in vitro ADME; conditions: Mouse liver microsomes; for microsomal CLint at 2 μM / half-life at 2 μM / CLint scaled at 2 μM: male; for microsomal CLint at 2 μM: mouse, liver microsomes, read-out: CLint (μL/min/mg protein); for microsomal CLint at 2 μM / half-life at 2 μM: 2 μM compound, 0.5 mg/mL microsomes, 1 mM NADPH; for half-life at 2 μM: 37° C; for CLint scaled at 2 μM: read-out: Scaled-up CLint
[4] = I-17 1.33 mg/kg i.v., individual rats R07-R09, 1.33 mg/kg
[5] = 1.33 mg/kg, I-17 1.33 mg/kg i.v., Mean ± SD
[6] = 1.33 mg/kg, I-17 1.33 mg/kg i.v., individual rats R07-R09
[7] = I-19 1.2 mg/kg i.v., individual rats R07-R09, 1.2 mg/kg
[8] = 1.2 mg/kg, I-19 1.2 mg/kg i.v., individual rats R07-R09

In the case of `CSc1ccc2[nH]cc(CCN(C(C)C)C(C)C)c2c1` [Compound I-17, N-Isopropyl-N-(2-(5-(methylthio)-1H-indol-3-yl)ethyl)propan-2-amine], the “Plasma concentration” value ([1]; I-17 1.33 mg/kg i.v., 0.25 h, individual rats R07-R09, 1.33 mg/kg) is reported as 197 ng/mL and 259 ng/mL, the “Plasma concentration” value ([1]; I-17 1.33 mg/kg i.v., 1 h, individual rats R07-R09, 1.33 mg/kg) is reported as 89.3 ng/mL and 120 ng/mL and the “Plasma concentration” value ([1]; I-17 1.33 mg/kg i.v., 4 h, individual rats R07-R09, 1.33 mg/kg) is reported as 17.7 ng/mL and 15.6 ng/mL. For the same molecule, the “AUC0-tlast” value [1, 4] was 363 ng·h/mL, the “Apparent t1/2” value [1, 4] was 67.8 min and 57 min and the concentration at 0.25 h ([1]; 1.33 mg/kg, I-17 1.33 mg/kg i.v., 0.25 h, Mean ± SD) was 198 ± 60 ng/mL. It also gave a concentration at 0.25 h ([1]; 1.33 mg/kg, I-17 1.33 mg/kg i.v., 0.25 h, individual rats R07-R09) of 139 ng/mL, a concentration at 1 h ([1]; 1.33 mg/kg, I-17 1.33 mg/kg i.v., 1 h, Mean ± SD) of 103 ± 15.5 ng/mL and a concentration at 1 h ([1]; 1.33 mg/kg, I-17 1.33 mg/kg i.v., 1 h, individual rats R07-R09) of 101 ng/mL. It also gave a concentration at 4 h ([1]; 1.33 mg/kg, I-17 1.33 mg/kg i.v., 4 h, Mean ± SD) of 19.7 ± 5.39 ng/mL, a concentration at 4 h ([1]; 1.33 mg/kg, I-17 1.33 mg/kg i.v., 4 h, individual rats R07-R09) of 25.8 ng/mL and a half-life [1, 5] of 72.6 ± 18.1 min. The AUC(0-t) [1, 5] was 315 ± 41.4 ng·h/mL, the half-life [1, 6] was 92.4 min and the AUC(0-t) [1, 6] was 291 ng·h/mL. For the same molecule, the “Predicted hepatic CL” value [2] was 19.11 mL/min/kg, the half-life at 2 μM [2] was 6.99 min and the microsomal CLint at 2 μM [2] was 198 µL/min/mg. For the same molecule, the CLint scaled at 2 μM [2] was 249 mL/min/kg, the “Predicted hepatic CL” value [3] was >84.35 mL/min/kg and the microsomal CLint at 2 μM [3] was > 307 µL/min/mg. The half-life at 2 μM [3] was < 4.51 min and the CLint scaled at 2 μM [3] was > 1340 mL/min/kg.
For `CSc1ccc2[nH]cc(CCN(C)C(C)C)c2c1` [Compound I-19, N-Methyl-N-(2-(5-(methylthio)-1H-indol-3-yl)ethyl)propan-2-amine], the “Plasma concentration” value ([1]; I-19 1.2 mg/kg i.v., 0.25 h, individual rats R07-R09, 1.2 mg/kg) was 13.4 ng/mL and 70.3 ng/mL and 84.4 ng/mL, the “Plasma concentration” value ([1]; I-19 1.2 mg/kg i.v., 1 h, individual rats R07-R09, 1.2 mg/kg) was 34.4 ng/mL and 41.4 ng/mL and the “Plasma concentration” value ([1]; I-19 1.2 mg/kg i.v., 4 h, individual rats R07-R09, 1.2 mg/kg) was 4.95 ng/mL and 4.34 ng/mL. The “AUC0-tlast” value [1, 7] was 103 ng·h/mL and 118 ng·h/mL, the “Apparent t1/2” value [1, 7] was 53.3 min and the concentration at 0.25 h ([1]; 1.2 mg/kg, I-19 1.2 mg/kg i.v., 0.25 h, Mean ± SD) was 56 ± 37.6 ng/mL. For the same molecule, the concentration at 1 h ([1]; 1.2 mg/kg, I-19 1.2 mg/kg i.v., 1 h, Mean ± SD) was 35.4 ± 5.57 ng/mL, the concentration at 1 h ([1]; 1.2 mg/kg, I-19 1.2 mg/kg i.v., 1 h, individual rats R07-R09) was 30.4 ng/mL and the concentration at 4 h ([1]; 1.2 mg/kg, I-19 1.2 mg/kg i.v., 4 h, Mean ± SD) was 5.35 ± 1.26 ng/mL. It also gave a concentration at 4 h ([1]; 1.2 mg/kg, I-19 1.2 mg/kg i.v., 4 h, individual rats R07-R09) of 6.76 ng/mL, an AUC(0-t) ([1]; 1.2 mg/kg, I-19 1.2 mg/kg i.v., Mean ± SD) of 96.1 ± 26.4 ng·h/mL and a half-life [1, 8] of 60 min. The AUC(0-t) [1, 8] was 66.9 ng·h/mL, the half-life ([1]; 1.2 mg/kg, I-19 1.2 mg/kg i.v., mean (n = 2)) was 56.8 min and the “Predicted hepatic CL” value [2] was 16.93 mL/min/kg. The half-life at 2 μM [2] was 18.7 min, the microsomal CLint at 2 μM [2] was 74.1 µL/min/mg and the CLint scaled at 2 μM [2] was 92.9 mL/min/kg. For the same molecule, the “Predicted hepatic CL” value [3] was 78.36 mL/min/kg, the microsomal CLint at 2 μM [3] was 138 µL/min/mg and the half-life at 2 μM [3] was 10 min. For the same molecule, the CLint scaled at 2 μM [3] was 606 mL/min/kg.
